Source: patent publication US11466029B2, “Compounds useful to treat influenza virus infections” (Nanjing Zhengxiang Pharmaceuticals Co., Ltd., priority 2019, dated 2022)
“Also recorded” adds a separate entry of the source. Read-outs that look alike come from different tables or passages of the source.

Key:
in vitro = conditions: dog
IFV A/PR/8/34 (H1N1) = experiment: microbe, parasite or virus in culture; format: cell-based; conditions: Influenza A virus, MDCK, 120 h
IFV A/WSN/33 (H1N1) = experiment: microbe, parasite or virus in culture; format: cell-based; conditions: Influenza A virus, MDCK, 120 h
B/Lee/40 = experiment: microbe, parasite or virus in culture; format: cell-based; conditions: Influenza B virus, 120 h
A/Hongkong/8/68 (H3N2) = experiment: microbe, parasite or virus in culture; format: cell-based; conditions: Influenza A virus, H3N2, MDCK, 120 h
[1] = test system: A/California/07/2009 (H1N1)pdm09; experiment: microbe, parasite or virus in culture; format: cell-based; conditions: Influenza A virus, H1N1, MDCK, 120 h
B/Florida/78/2015 = experiment: microbe, parasite or virus in culture; format: cell-based; conditions: Influenza B virus, 120 h
A/Weiss/43 (H1N1) = experiment: microbe, parasite or virus in culture; format: cell-based; conditions: Influenza A virus, H1N1, MDCK, 120 h
[2] = male CD-1 mice, plasma B-1
Experimental: (§1) B-1 was administered to male CD-1 mice (4-6 weeks old, 20-30 grams, 3 animals each group) via intravenous (IV) bolus at 1 mg/kg and by oral gavage (PO) at 10 mg/kg. […] All animals had free access to food and water prior to dosing. Blood samples (˜0.03 mL each time point) were collected via the jugular vein into tubes containing sodium heparin as the anticoagulant at 0.033, 0.083, 0.25, 0.5, 1, 2, 4, 8 and 24 hours post dose for IV administration and 0.083, 0.25, 0.5, 1, 2, 4, 8 and 24 hours post dose for PO administration. The blood samples were then centrifuged for 5 minutes in a centrifuge refrigerated at 4° C. The resultant plasma samples were analyzed using LC/MS/MS to determine concentrations of B-1. Non-compartmental model with WinNonlin (Phoenix™, version 8.0) software was used to calculate pharmacokinetic (PK) parameters.

in vivo [3] = conditions: male, CD-1, mouse, iv, 1 mg/kg
Experimental: as §1

Pharmacokinetics in Rats = format: in vivo; set-up: AUClast: unit not given here; conditions: non-fasted male SD rats, plasma B-1
Experimental: C-1 was administered to 3 non-fasted male SD rats via oral gavage at 3 mg/kg.

[4] = target: Influenza Virus CEN PAn enzyme (UniProt P03433); format: biochemical; conditions: read-out: CEN IC50
influenza virus PR/8/34 = test system: influenza virus PR/8/34; set-up: species or system Balb/c mice; conditions: in vivo; for body weight loss: 5 mg/kg
influenza virus = format: cell-based
in vivo [5] = conditions: male, cynomolgus monkey, iv, 0.25 mg/kg
Experimental: (§2) B-1 was administered to male cynomolgus monkeys (2-5 years old, 2-5 kg, 3 animals each group) via intravenous (IV) bolus at 0.25 mg/kg and by oral gavage (PO) at 1 mg/kg; Animals in the IV group had free access to food and water (non-fasted) and animals in the PO group were fasted overnight prior to dosing (fasted). C-1 was administered to male cynomolgus monkeys (fasted or non-fasted, 3 each group) via oral gavage at 1 mg/kg. Blood samples (˜0.5 mL each time point) were collected via the jugular vein into tubes containing potassium ethylenediaminetetraacetic acid (K2EDTA) as the anticoagulant at 0.033, 0.083, 0.25, 0.5, 1, 2, 4, 8 and 24 hours post dose for IV administration and 0.083, 0.25, 0.5, 1, 2, 4, 8 and 24 hours post dose for PO administration. The blood samples were then centrifuged for 10 minutes in a centrifuge refrigerated at 2-8° C. The resultant plasma samples were analyzed using LC/MS/MS to determine concentrations of B-1. Non-compartmental model with WinNonlin (Phoenix™, version 6.1) software was used to calculate pharmacokinetic (PK) parameters.

[6] = for AUClast: plasma B-1
Experimental: as §2

[7] = in vivo; cited from earlier work
[8] = Toxicity study, oral gavage once daily for 7 days; format: in vivo, Sprague Dawley (SD) rats
Experimental: A toxicity study of C-1 was conducted in Sprague Dawley (SD) rats. C-1 at 20, 100 and 500 mg/kg or vehicle (0.5% w/v CMC-Na and 0.1% v/v Tween-80 in DI water) was administered via oral gavage to Sprague Dawley rats (7-9 weeks, about 250-300 grams each for males and about 200-250 grams each for females) once daily for 7 days. 8 females and 8 males in each dose group were used.

[9] = Liver microsomal stability; conditions: mouse, liver microsomes
[10] = Liver microsomal stability; conditions: rat, liver microsomes
[11] = Liver microsomal stability; conditions: dog, liver microsomes
[12] = Liver microsomal stability; conditions: cynomolgus monkey, liver microsomes
[13] = Liver microsomal stability; conditions: human, liver microsomes
[14] = B/Lee/40, MDCK cells, 5 days, read-out: EC50
[15] = B/Florida/78/2015, MDCK cells, 5 days, read-out: EC50
[16] = Sprague-Dawley (SD), rat, IV 0.25 mg/kg
[17] = PO 1 mg/kg, fasted male cynomolgus monkeys

SMILES: CCC(CC)O[C@@H]1C=C(C(=O)O)C[C@H](N)[C@H]1NC(C)=O [Oseltamivir acid, reference compound]
- CC50 (in vitro): > 100000 nM
- EC50 (IFV A/PR/8/34 (H1N1)): > 100000 nM
- EC50 (IFV A/WSN/33 (H1N1)): > 100000 nM
- EC50 (B/Lee/40; [14]): 749 nM
- EC50 (A/Hongkong/8/68 (H3N2)): 20 nM
- EC50 [1]: 231 nM
- EC50 (B/Florida/78/2015; [15]): 8480 nM
- EC50 (A/Weiss/43 (H1N1)): 476 nM

SMILES: O=C1c2c(O)c(=O)ccn2N([C@@H]2c3ccccc3[Se]Cc3c2ccc(F)c3F)[C@@H]2COCCN12 [Compound B-1, (R)-12-((S)-7,8-Difluoro-6,11-Dihydrodibenzo[b,e]Selenepin-11-yl)-7-Hydroxy-3,4,12,12a-Tetrahydro-1H-[1,4]Oxazino[3,4-c]Pyrido[2,1-f][1,2,4]Triazine-6,8-Dione]
- AUClast ([2]; IV 1 mg/kg): 601
- AUClast ([2]; PO 10 mg/kg): 2129
- AUC(0-inf) (in vivo [3]): 608 ng·h/mL
- half-life (in vivo [3]): 4.1 h
- CC50 (in vitro): 13000 nM
- cytotoxicity (MDCK cells): little cytotoxicity
- EC50 (IFV A/PR/8/34 (H1N1)): 1.1 nM
- AUClast (Pharmacokinetics in Rats; IV 0.25 mg/kg): 84
- AUClast (Pharmacokinetics in Rats; PO 3 mg/kg): 123
- AUC(0-inf) (Pharmacokinetics in Rats; [16]): 92 ng·h/mL
- half-life (Pharmacokinetics in Rats; [16]): 4 h
- EC50 (IFV A/WSN/33 (H1N1)): 0.32 nM
- EC50 (B/Lee/40; MDCK): 12 nM
- IC50 [4]: 15 nM
- antivirus efficacy in influenza virus PR/8/34 mouse model (influenza virus PR/8/34): potent antivirus efficacy; also recorded: potent antivirus activity
- survival (influenza virus PR/8/34; mouse, po): survived throughout the study
- body weight loss (influenza virus PR/8/34; mouse, po): minimal
- EC50 (A/Hongkong/8/68 (H3N2)): 0.68 nM
- EC50 [1]: 0.37 nM
- antivirus activity (influenza virus): potent antivirus activity
- EC50 (B/Florida/78/2015; MDCK): 25 nM
- EC50 (A/Weiss/43 (H1N1)): 1.2 nM
- AUC(0-inf) (in vivo [5]): 257 ng·h/mL
- half-life (in vivo [5]): 11 h
- AUClast ([6]; IV 0.25 mg/kg, non-fasted male cynomolgus monkeys): 204
- AUClast [6, 17]: 231

SMILES: CP(C)(=O)c1cn2c(c(O)c1=O)C(=O)N1CCOCC1N2C1c2ccccc2SCc2c1ccc(F)c2F (single isomer, unassigned) [Compound E-1a, 12-(7,8-difluoro-6,11-dihydrodibenzo[b,e]thiepin-11-yl)-9-(dimethylphosphoryl)-7-hydroxy-3,4,12,12a-tetrahydro-1H-[1,4]oxazino[3,4-c]pyrido[2,1-f][1,2,4]triazine-6,8-dione]
- IC50 [4]: 31 nM

SMILES: O=C1c2c(O)c(=O)ccn2N([C@@H]2c3ccccc3SCc3c2ccc(F)c3F)[C@@H]2COCCN12 [Baloxavir acid, reference compound]
- oral availability [7]: poor oral availability
- CC50 (in vitro): 12000 nM
- EC50 (IFV A/PR/8/34 (H1N1)): 0.73 nM
- EC50 (IFV A/WSN/33 (H1N1)): 0.44 nM
- EC50 (B/Lee/40; MDCK): 6.3 nM
- IC50 [4]: 14 nM
- EC50 (A/Hongkong/8/68 (H3N2)): 1.7 nM
- EC50 [1]: 0.66 nM
- EC50 (B/Florida/78/2015; MDCK): 16 nM

SMILES: CCOC(=O)C1=C[C@@H](OC(CC)CC)[C@H](NC(C)=O)[C@@H](N)C1 [oseltamivir, reference compound]
- improvement in body weight loss (influenza virus PR/8/34; mouse, po): did not result in substantial improvement
- mice died (influenza virus PR/8/34; mouse, po): 60%

SMILES: COC(=O)OCOc1c2n(ccc1=O)N(C1c3ccccc3[Se]Cc3c1ccc(F)c3F)[C@@H]1COCCN1C2=O (some centres unmarked) [Compound C-1]
- AUClast ([2]; PO 10 mg/kg): 2834
- AUClast (Pharmacokinetics in Rats; PO 3 mg/kg): 280
- IC50 [4]: 1550 nM
- antivirus efficacy in influenza virus PR/8/34 mouse model (influenza virus PR/8/34): potent antivirus activity
- improvement in body weight loss (influenza virus PR/8/34; mouse, po): significant dose-dependent improvement
- survival (influenza virus PR/8/34; mouse, po): survived throughout the study
- body weight loss (influenza virus PR/8/34; mouse, po): minimal
- MTD at 7 days ([8]; both sexes, Sprague Dawley, rat, in vivo, oral gavage once daily for 7 days, read-out: maximum tolerated dose (MTD)): > 500 mg/kg/day
- toxic findings (clinical observation, body weight, food consumption, gross pathology) ([8]; in words, 20, 100 and 500 mg/kg oral gavage once daily for 7 days): No C-1-related toxic findings
- tolerability ([8]; in words, oral gavage once daily for 7 days): well tolerated
- AUClast [6, 17]: 414
- AUClast ([6]; PO 1 mg/kg, non-fasted male cynomolgus monkeys): 400
- food effect / impact of feeding condition on oral absorption ([6]; in words, cynomolgus monkeys, fasted vs non-fasted): did not impact oral absorption

SMILES: CCP(=O)(CC)c1cn2c(c(O)c1=O)C(=O)N1CCOC[C@H]1N2[C@@H]1c2ccccc2SCc2c1ccc(F)c2F [Compound F-1, (R)-9-(Diethylphosphoryl)-12-((S)-7,8-Difluoro-6,11-Dihydrodibenzo[b,e]-Thiepin-11-yl)-7-Hydroxy-3,4,12,12a-Tetrahydro-1H-[1,4]Oxazino[3,4-c]Pyrido[2,1-f][1,2,4]Triazine-6,8-Dione]
- CC50 (in vitro): > 100000 nM
- EC50 (IFV A/PR/8/34 (H1N1)): > 100 nM
- EC50 (IFV A/WSN/33 (H1N1)): 57 nM
- EC50 (B/Lee/40; [14]): > 1000 nM
- EC50 (A/Hongkong/8/68 (H3N2)): 310 nM
- EC50 [1]: 125 nM
- EC50 (B/Florida/78/2015; [15]): > 1000 nM
- EC50 (A/Weiss/43 (H1N1)): 22 nM

SMILES: CP(C)(=O)c1cn2c(c(O)c1=O)C(=O)N1CCOCC1N2C1c2ccccc2SCc2c1ccc(F)c2F (single isomer, unassigned) [Compound E-1b, 12-(7,8-difluoro-6,11-dihydrodibenzo[b,e]thiepin-11-yl)-9-(dimethylphosphoryl)-7-hydroxy-3,4,12,12a-tetrahydro-1H-[1,4]oxazino[3,4-c]pyrido[2,1-f][1,2,4]triazine-6,8-dione]
- IC50 [4]: 32 nM

SMILES: O=C1c2c(O)c(=O)ccn2N(C2c3ccccc3[Se]Cc3c2ccc(F)c3F)C2COCCN12 (single isomer, unassigned) [Compound A-1-P1, 12-(7,8-Difluoro-6,11-Dihydrodibenzo[b,e]Selenepin-11-yl)-7-Hydroxy-3,4,12,12a-Tetrahydro-1H-[1,4]Oxazino[3,4-c]Pyrido[2,1-f][1,2,4]Triazine-6,8-Dione]
- IC50 [4]: 42 nM

SMILES: O=C1c2c(O)c(=O)ccn2N(C2c3ccccc3[Se]Cc3c2ccc(F)c3F)C2COCCN12 (single isomer, unassigned) [Compound A-1-P2, 12-(7,8-Difluoro-6,11-Dihydrodibenzo[b,e]Selenepin-11-yl)-7-Hydroxy-3,4,12,12a-Tetrahydro-1H-[1,4]Oxazino[3,4-c]Pyrido[2,1-f][1,2,4]Triazine-6,8-Dione]
- half-life [9]: 4.77 h
- microsomal CLint [9]: 5.2 µL/min/mg
- half-life [10]: 2.88 h
- microsomal CLint [10]: 8.3 µL/min/mg
- half-life [11]: 6.25 h
- microsomal CLint [11]: 4.5 µL/min/mg
- IC50 [4]: 25 nM
- half-life [12]: 1.42 h
- microsomal CLint [12]: 16 µL/min/mg
- half-life [13]: 60.9 h
- microsomal CLint [13]: 2.2 µL/min/mg

SMILES: COC(=O)OCOc1c2n(ccc1=O)N([C@@H]1c3ccccc3SCc3c1ccc(F)c3F)[C@@H]1COCCN1C2=O [baloxavir marboxil]
- oral availability [7]: poor oral availability

SMILES: CP(C)(=O)c1cn2c(c(O)c1=O)C(=O)N1CCOC[C@H]1N2[C@@H]1c2ccccc2SCc2c1ccc(F)c2F [Compound E-1c, (R)-12-((S)-7,8-difluoro-6,11-dihydrodibenzo[b,e]thiepin-11-yl)-9-(dimethylphosphoryl)-7-hydroxy-3,4,12,12a-tetrahydro-1H-[1,4]oxazino[3,4-c]pyrido[2,1-f][1,2,4]triazine-6,8-dione]
- CC50 (in vitro): > 100000 nM
- EC50 (IFV A/PR/8/34 (H1N1)): 68 nM
- EC50 (IFV A/WSN/33 (H1N1)): 58 nM
- EC50 (B/Lee/40; [14]): > 1000 nM
- EC50 (A/Hongkong/8/68 (H3N2)): 207 nM
- EC50 [1]: 129 nM
- EC50 (B/Florida/78/2015; [15]): > 1000 nM
- EC50 (A/Weiss/43 (H1N1)): 133 nM
